Data: patent US11407741B2, “Compounds and their use as selective inhibitors of caspase-2” (priority 2017, dated 2022)

Biological target: T1, Caspase-3 (Homo sapiens, UniProt P42574)
T1 construct: the Caspase-2 and Caspase-3 are human recombinant active enzymes; purchased R&D Systems 707-C3-010/CF
T1 sequence (P42574 29-175 limits assumed): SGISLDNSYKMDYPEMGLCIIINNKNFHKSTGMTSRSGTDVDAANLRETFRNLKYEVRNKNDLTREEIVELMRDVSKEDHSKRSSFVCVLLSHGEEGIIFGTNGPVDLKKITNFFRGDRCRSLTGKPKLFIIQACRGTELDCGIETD
T1 sequence (P42574 176-277 limits assumed): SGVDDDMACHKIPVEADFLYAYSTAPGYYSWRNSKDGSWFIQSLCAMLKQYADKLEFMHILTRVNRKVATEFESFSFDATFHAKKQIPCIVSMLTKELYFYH
Experiment: Caspase-3 inhibition assay for irreversible inhibitors (kinact/KI, continuous method)
Format: biochemical
Details: human recombinant Caspase-3 0.5 nM, 37° C.
Method: The efficiency of the comparative compound Δ2Me-TRP601, that is an already known group II Caspase inhibitor (inhibitor of Caspase-2, Caspase-3 and Caspase-7), has been assessed by a similar protocol described in Chauvier et al., 2011 Cell Death Dis 2011, 2:e203.
In this example, the Caspase-2 and Caspase-3 are human recombinant active enzymes that are respectively provided by Enzo Life® (ALX-201-057-U100) and R&D Systems® (707-C3-010/CF).
Caspase-2 is used at a final concentration of 0.1 nM in a “Caspase-2 buffer” containing 20 mM HEPES (pH 7.4), 5 mM DTT, 2 mM EDTA, 0.1% CHAPS and 800 mM succinate. […]
The peptide substrates used for the enzymatic activity measurements are Ac-DEVD-AMC and Ac-VDVAD-AMC commercialized by EnzoLife® (respectively referenced ALX-260-031-M005 and ALX-260-060-M005). […] The releasing of AMC enables to follow the enzymatic activity in fluorescence unit RFU over time in a 96-wells microplate.
The fluorescence values are measured at 37° C. with a spectrofluorometer with a microplate reader BMG FLUOstar OPTIMA. […]
The inhibitory properties of the tested compounds are evaluated by the determination of the kinact/KI ratio regarding either Caspase-2 or Caspase-3 wherein: • kinact is the maximal inactivation rate constant, and • KI is the dissociation constant according to: […]
The activities of the enzyme are measured between 45 and 60 minutes. […]

Structure (SMILES): CC(C)[C@H](NC(=O)c1ccc2ccccc2n1)C(=O)N[C@@H](CC(=O)O)C(=O)N[C@H](C(=O)N1CC[C@H](CC(C)(C)C)[C@H]1C(=O)N[C@@H](CC(=O)O)C(=O)COc1c(F)cccc1F)C(C)C (single isomer, unassigned) [Compound 2 enantiomer a]
- k3/KI Casp3: 2 625 M^−1 · s^−1
